Results reported in ChEMBL document CHEMBL1130660, “Design and synthesis of a tetrahydropyran-based inhibitor of mammalian ribonucleotide reductase” (Bioorg Med Chem Lett, 1998).

Key:
Assay type in all cases: protein-complex assay
[1] = biological target: T1, Ribonucleoside-diphosphate reductase RR1 (Homo sapiens) (UniProt P23921+Q7LG56+P31350); test: Mammalian ribonucleotide reductase (mRR) inhibitory activity at a dose of 500 uM
[2] = biological target: T1, Ribonucleoside-diphosphate reductase RR1 (Homo sapiens); test: Mammalian ribonucleotide reductase (mRR) inhibitory activity at a dose of 30 uM
[3] = biological target: T1, Ribonucleoside-diphosphate reductase RR1 (Homo sapiens); test: Mammalian ribonucleotide reductase (mRR) inhibitory activity at a dose of 1000 uM
[4] = biological target: T1, Ribonucleoside-diphosphate reductase RR1 (Homo sapiens); test: Mammalian ribonucleotide reductase (mRR) inhibitory activity at a dose of 100 uM
[5] = biological target: T1, Ribonucleoside-diphosphate reductase RR1 (Homo sapiens); test: Mammalian ribonucleotide reductase (mRR) inhibitory activity at a dose of 300 uM
[6] = biological target: T1, Ribonucleoside-diphosphate reductase RR1 (Homo sapiens); test: Mammalian ribonucleotide reductase (mRR) inhibitory activity at a dose of 0 uM

## CC(=O)N[C@@H](Cc1ccccc1)C(=O)NC[C@@H]1O[C@H]([C@@H](C)C(=O)N[C@@H](CC(=O)O)C(=O)N[C@@H](Cc2ccccc2)C(=O)O)[C@@H](OCC(=O)O)C[C@H]1OCC(C)C
[1]
  Residual RR activity: 48%
[2]
  Residual RR activity: 86%
[3]
  Residual RR activity: 32%
[4]
  Residual RR activity: 73%
[5]
  Residual RR activity: 64%
[6]
  Residual RR activity: 100%
